From patent US20220169645A1, “COMPOUNDS AS BRUTON TYROSINE KINASE INHIBITORS, PREPARATION METHODS AND MEDICAL APPLICATIONS THEREOF” (Eternity Bioscience Inc., priority 2020, published 2022)

Tests used:
BTK-C481S mutant = target: T1, BTK-C481S mutant (Homo sapiens, UniProt Q06187, C481S); test: BTK-Y223 autophosphorylation in HEK293 cells stably expressing BTK-C481S (HTRF); assay type: cell-based; settings: 2 hours treatment
T1 construct: host or cells: HEK293 (ATCC CRL1573), lentiviral transduction, puromycin selected
T1 sequence (Q06187 whole entry C481S): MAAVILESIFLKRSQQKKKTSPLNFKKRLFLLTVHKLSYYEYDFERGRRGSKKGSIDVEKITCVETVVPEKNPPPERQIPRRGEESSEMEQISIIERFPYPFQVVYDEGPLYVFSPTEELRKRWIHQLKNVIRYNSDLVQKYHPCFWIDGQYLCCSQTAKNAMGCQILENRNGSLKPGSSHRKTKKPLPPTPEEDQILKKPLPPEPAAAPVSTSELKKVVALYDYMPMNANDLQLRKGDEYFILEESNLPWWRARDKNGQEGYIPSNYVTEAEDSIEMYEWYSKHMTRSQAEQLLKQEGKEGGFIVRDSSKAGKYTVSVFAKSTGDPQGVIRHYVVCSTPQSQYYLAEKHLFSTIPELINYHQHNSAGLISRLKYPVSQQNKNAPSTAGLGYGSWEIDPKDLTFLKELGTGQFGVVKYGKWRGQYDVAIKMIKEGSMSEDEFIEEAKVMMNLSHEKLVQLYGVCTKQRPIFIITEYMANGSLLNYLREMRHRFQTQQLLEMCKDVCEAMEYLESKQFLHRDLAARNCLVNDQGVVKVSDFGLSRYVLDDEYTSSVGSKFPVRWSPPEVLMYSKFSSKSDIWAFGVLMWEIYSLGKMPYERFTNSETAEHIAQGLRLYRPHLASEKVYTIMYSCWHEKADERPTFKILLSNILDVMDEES
Procedure: (§1) HEK293 cells (purchased from ATCC, CRL1573) stably expressing wild type BTK or mutant C481S BTK were generated by lentiviral transduction of constructs containing human BTK-WT or BTK-C481S mutant (Genecopoeia, Lv201 vector). Cells expressing BTK proteins were selected with puromycin treatment (1 μM). The protein expression was confirmed by western blotting of BTK and BTK-Y223 autophosphorylation. The cells were cultured in MEM medium (Sigma M2279), 10% heat-Inactivated FBS (Gibco 10100), penicillin streptomycin (Thermal Fisher 15140122), and puromycin (InvivoGen QLL-41-03). The BTK-Y223 phosphorylation was quantified using BTK phospho-Y223 kit (Cisbio 63ADK017PEG). HEK293/BTK stable cells were seeded in a 96-well plate at a density of 10 thousand cells/well in a total volume of 100 μL of media. Cells were incubated overnight in a humidified, 5% CO2 cell culture incubator at 37° C. The next day, the cells were treated with diluted compounds in a humidified, 5% CO2 cell culture incubator at 37° C. for 2 hours. The medium was removed from each well, and 50 μL of 1× lysis buffer from the assay kit was added into each well. The cells were incubated for 30 min at room temperature with shaking. Then 16 μL of lysate was transferred to a PROXIPLATE 384-plate (PerkinElmer 6008230), followed by addition of 4 μL of HTRF pre-mixed antibodies. After incubation overnight at room temperature, fluorescence signals in the plates were read on PHERAstar FSX instrument, using HTRF settings ([…]).
(§2) The relative cellular pBTK inhibition was calculated by HTRF signal change: The average of positive control well reading, and average of negative control reading were used as controls to calculate inhibition percentage.
(§3) The data was input into GraphPad Prism, using function “log(inhibitor) vs. response—Variable slope (four parameters)” to get IC50 values.

human BTK-WT = target: T2, human BTK-WT (Homo sapiens, UniProt Q06187); test: BTK-Y223 autophosphorylation in HEK293 cells stably expressing BTK-WT (HTRF); assay type: cell-based; settings: 2 hours treatment
T2 construct: host or cells: HEK293 (ATCC CRL1573), lentiviral transduction, puromycin selected
T2 sequence (Q06187 whole entry): as the sequence (Q06187 whole entry C481S) above, with S481C counted along it
Procedure: as §1, §2, §3

BTK-C481S = target: T3, BTK-C481S (Homo sapiens, UniProt Q06187, C481S); test: BTK-C481S kinase activity assay (ADP-Glo); assay type: biochemical; settings: BTK kinase inhibition, 30 min preincubation, 90 min reaction
T3 construct: purchased Abcam ABCAM 204166; host or cells: Baculovirus infected Sf9 cells
T3 sequence (Q06187 whole entry C481S): as the sequence (Q06187 whole entry C481S) above
Procedure: (§4) These assays are to determine the degree of inhibition of the BTK-WT and BTK-C481S mutant kinase activity by measuring the amount of ADP produced during the enzymatic reactions. […] Compounds, BTK enzymes, ATP and substrate were all prepared in ix kinase assay buffer by diluting 5× stock of kinase assay buffer III (Signal Chem K03-09), in H2O, and adding DTT (Thermo ScientificA39255) for a final concentration of 50 μM. […] Then the plate was kept shaking for 30 min at room temperature to allow the binding of the compounds to the proteins. After the preincubation, ATP and the substrate, a total of 5 μL was added into each well. The plate was then spun down at 1000 rpm for 2 minutes and kept shaking for 90 min at room temperature. ADP detection was performed following the guidance from the ADP-Glo Kinase Assay kits (Promega V9101). Briefly, 10 μL of ADP-Glo reagent was added into each well. The plate was then spun down at 1000 rpm for 2 minutes and kept shaking at room temperature for 60 min. Twenty μL of the kinase detection solution was added into each well. The plate was incubated at room temperature for 30 min in dark. The plates were read for luminescence signals in Tecan M1000 directly following the 30 min incubation. Relative inhibition of BTK kinase activities were analyzed by calculating the luminescence signal change:
(§5) Data was input into GraphPad Prism, and the IC50 values were calculated using function “log(inhibitor) vs. response—Variable slope (four parameters)”.

full-length human BTK-WT = target: T4, full-length human BTK-WT (Homo sapiens, UniProt Q06187); test: BTK-WT kinase activity assay (ADP-Glo); assay type: biochemical; settings: BTK kinase inhibition, 30 min preincubation, 90 min reaction
T4 construct: The full-length human BTK-WT (ABCAM205800); purchased Abcam ABCAM205800; host or cells: Baculovirus infected Sf9 cells
T4 sequence (Q06187 whole entry): as the sequence (Q06187 whole entry C481S) above, with S481C counted along it
Procedure: as §4, §5

[1] = system: human TMD-8 diffuse large B-cell lymphoma cells; test: BTK-dependent cell proliferation in human TMD-8 cells (CellTiter-Glo); assay type: cell-based; settings: TMD8, 72 h, TMD-8 DLBCL cells, 3 days, absolute IC50
Procedure: The human TMD-8 DLBCL cancer cells were cultured in RPMI media with high glucose and glutamine (Genesee 25-506), 20% heat-inactivated FBS (Gibco 10100), penicillin streptomycin (Thermal Fisher 15140122) and 1 mM sodium pyruvate (Thermal Fisher 11360070). TMD-8 cells were centrifuged at 300 g for 5 minutes and the cells were resuspended into fresh cell culture media. The cells were counted and made to a cell stock of 1.3 million/mL. Then 75 μL of cells were seeded into each well of a white 96-well cell culture plate (Corning 353286). A serial dilution of compounds was made and 25 μL was added to each well. The plates were incubated for 3 days in a humidified, 5% CO2 atmosphere at 37° C. Inhibition of cell growth by the compounds was determined by measuring the ATP level generated by the cells with the Cell Titer-Glo Luminescent Cell Viability Kit (Promega G7572). Assay procedures were conducted according to the protocols provided by Promega. In brief, the treated cell-culture plate and its contents were equilibrated at room temperature for approximately 30 minutes. 100 μL of CellTiter-Glo® Reagent was added into each cell-culture well, and contents were mixed for 2 minutes on an orbital shaker to induce cell lysis. The plate was incubated at room temperature for 10 minutes to stabilize luminescent signal. The resulting luminescence signal was immediately read using a TECAN plate reader. The relative cell grow inhibition was calculated by Cell Titer-Glo luminescent signal change.
The average readings of media-only wells and the readings of positive control wells (no compound treatment) were used to calculate response percentage.
The data was input into GraphPad Prism, and the curve fitting was made using function “log(inhibitor) vs. response—Variable slope (four parameters)”. The interpolation function was used to calculate absolute IC50 values.

Row | IC50 (BTK-C481S mutant) [nM] | IC50 (human BTK-WT) [nM] | IC50 (BTK-C481S) [nM] | IC50 (full-length human BTK-WT) [nM] | IC50 [1] [nM] | Structure (SMILES)
1 | 115 | 55 | 3.6 | 5.6 | 47 | COc1ccc(F)cc1C(=O)NCc1ccc(-n2nc(C(C)C)c(N)c2C(N)=O)cc1 [Example A1, 4-amino-1-(4-((5-fluoro-2-methoxybenzamido)methyl)phenyl)-3-isopropyl-1H-pyrazole-5-carboxamide]
2 | – | – | 11 | 11 | 240 | CCOc1cc(CNC(=O)c2cc(F)ccc2OC)ccc1-n1nc(C(C)C)c(N)c1C(N)=O [Example A5, 4-amino-1-(2-ethoxy-4-((5-fluoro-2-methoxybenzamido)methyl)phenyl)-3-isopropyl-1H-pyrazole-5-carboxamide]
3 | 170 | 84 | 14 | 14 | 140 | COc1ccccc1C(=O)NCc1ccc(-n2nc(C(C)C)c(N)c2C(N)=O)cc1 [Example A9, 4-amino-3-isopropyl-1-(4-((2-methoxybenzamido)methyl)phenyl)-1H-pyrazole-5-carboxamide]
4 | – | – | 60 | 62 | – | CC(C)c1nn(-c2ccc(CNC(=O)c3cccc4c3OCC4)cc2)c(C(N)=O)c1N [Example A10, 4-amino-1-(4-((2,3-dihydrobenzofuran-7-carboxamido)methyl)phenyl)-3-isopropyl-1H-pyrazole-5-carboxamide]
5 | – | – | 27 | 35 | – | COc1ccc(F)cc1C(=O)NCc1ccc(-n2nc(C(C)C)c(N)c2C(N)=O)c(F)c1 [Example A11, 4-amino-1-(2-fluoro-4-((5-fluoro-2-methoxybenzamido)methyl)phenyl)-3-isopropyl-1H-pyrazole-5-carboxamide]
6 | 180 | 130 | 5.8 | 26 | 160 | COc1ccc(F)cc1C(=O)NCc1ccc(-n2nc(C3CCOCC3)c(N)c2C(N)=O)cc1 [Example A12, 4-amino-1-(4-((5-fluoro-2-methoxybenzamido)methyl)phenyl)-3-(tetrahydro-2H-pyran-4-yl)-1H-pyrazole-5-carboxamide]
7 | 120 | 57 | 2.7 | 4.4 | 95 | COc1ccc(F)cc1C(=O)NCc1ccc(-n2nc(C3CCCOC3)c(N)c2C(N)=O)cc1 (stereo not drawn) [Example A13, 4-amino-1-(4-((5-fluoro-2-methoxybenzamido)methyl)phenyl)-3-(tetrahydro-2H-pyran-3-yl)-1H-pyrazole-5-carboxamide]
8 | 210 | 81 | 3.1 | 7.9 | 95 | COc1ccc(F)cc1C(=O)NCc1ccc(-n2nc(-c3cccs3)c(N)c2C(N)=O)cc1 [Example A14, 4-amino-1-(4-((5-fluoro-2-methoxybenzamido)methyl)phenyl)-3-(thiophen-2-yl)-1H-pyrazole-5-carboxamide]
9 | 84 | 27 | 4.2 | 3.7 | 29 | COc1ccc(F)cc1C(=O)NCc1ccc(-n2nc(C3CCCC3)c(N)c2C(N)=O)cc1 [Example A15, 4-amino-3-cyclopentyl-1-(4-((5-fluoro-2-methoxybenzamido)methyl)phenyl)-1H-pyrazole-5-carboxamide]
10 | 230 | 120 | 11 | 15 | 120 | COc1ccc(F)cc1C(=O)NCc1ccc(-n2nc(C3CCOC3)c(N)c2C(N)=O)cc1 (stereo not drawn) [Example A16, 4-amino-1-(4-((5-fluoro-2-methoxybenzamido)methyl)phenyl)-3-(tetrahydrofuran-3-yl)-1H-pyrazole-5-carboxamide]
11 | – | – | 93 | 87 | – | COc1ccc(F)cc1C(=O)NCc1ccc(-n2nc(N3CCOCC3)c(N)c2C(N)=O)cc1 [Example A17, 4-amino-1-(4-((5-fluoro-2-methoxybenzamido)methyl)phenyl)-3-morpholino-1H-pyrazole-5-carboxamide]
12 | – | – | 68 | 63 | – | CCOc1cc(CNC(=O)c2cc(F)ccc2OC)cc(F)c1-n1nc(C(C)C)c(N)c1C(N)=O [Example A19, 4-amino-1-(2-ethoxy-6-fluoro-4-((5-fluoro-2-methoxybenzamido)methyl)phenyl)-3-isopropyl-1H-pyrazole-5-carboxamide]
13 | 120 | 74 | 8 | 8.1 | 110 | COc1ccc(F)cc1C(=O)NCc1ccc(-n2nc(C3CCC(F)(F)CC3)c(N)c2C(N)=O)cc1 [Example A22, 4-amino-3-(4,4-difluorocyclohexyl)-1-(4-((5-fluoro-2-methoxybenzamido)methyl)phenyl)-1H-pyrazole-5-carboxamide]
